Experiment [1] is filed under the species Rattus norvegicus. Nature of the experiment: Induction of wound healing in surgically-induced Albino Wistar rat wound model inoculated with methicillin-resistant Staphylococcus aureus assessed as reduction in scarring measured after 11 days by H&E staining based analysis. The experiment is classed as functional. The conditions noted are these: time 11.0 day.

For experiment [2], the system named is Cell membrane. Nature of the experiment: Induction of cytoplasmic membrane depolarization in Klebsiella pneumoniae assessed as increase in fluorescence intensity at 5 uM by DiSC3-5 dye based fluorescence method. The experiment is classed as subcellular.
Experiment [3] concerns Cell membrane. In words: Induction of outer membrane permeabilization in methicillin-resistant Staphylococcus aureus incubated for 5 to 20 mins by fluorescence based NPN uptake assay. The conditions noted are these: time 5-20 min. It is filed as subcellular.
Experiment [4] deals with Pseudomonas aeruginosa. Nature of the experiment: Induction of resistance development in Pseudomonas aeruginosa assessed as fold increase in MIC at 0.5 times of MIC incubated with compound for 12 hrs followed by replacement with fresh medium for 12 hrs and measured after 20 repeated cycles. The experiment is classed as functional, organism-based. Particulars: time 240.0 hrs.

For experiment [5], the system named is Klebsiella pneumoniae. In words: Induction of resistance development in Klebsiella pneumoniae assessed as fold increase in MIC at 0.5 times of MIC incubated with compound for 12 hrs followed by replacement with fresh medium for 12 hrs and measured after 20 repeated cycles. It is filed as functional. The conditions noted are these: time 240.0 hrs.
Experiment [6] deals with Pseudomonas aeruginosa. Nature of the experiment: Antibacterial activity against patient-derived Pseudomonas aeruginosa assessed as inhibition of bacterial growth at 25 to 100 uM incubated overnight by spotting assay. It is filed as functional, organism-based. The conditions noted are these: dose 25-100 µM.
Experiment [7] relates to Staphylococcus aureus. In words: Antibacterial activity against patient-derived methicillin-resistant Staphylococcus aureus assessed as inhibition of bacterial growth at 25 to 100 uM incubated overnight by spotting assay. It is filed as functional, organism-based. Particulars: dose 25-100 µM.
Experiment [8] relates to Klebsiella pneumoniae. Nature of the experiment: Antibacterial activity against Klebsiella pneumoniae ATCC BAA-1705 assessed as inhibition of bacterial growth at 25 to 100 uM incubated overnight by spotting assay. Particulars: dose 25-100 µM. The experiment is classed as functional, organism-based.
The subject of experiment [9] is Escherichia coli. Nature of the experiment: Antibacterial activity against Escherichia coli ATCC CRM-11229 assessed as inhibition of bacterial growth at 25 to 100 uM incubated overnight by spotting assay. It is filed as functional, organism-based. Particulars: dose 25-100 µM.
For experiment [10], the system named is Pseudomonas aeruginosa. In words: Antibacterial activity against patient-derived Pseudomonas aeruginosa assessed as inhibition of bacterial growth incubated for 24 hrs by CLSI protocol based microdilution method. The experiment is classed as functional. In general terms: In broth dilution the organism is exposed to a series of concentrations in liquid medium.

The subject of experiment [11] is Staphylococcus aureus. In words: Antibacterial activity against patient-derived methicillin-resistant Staphylococcus aureus assessed as inhibition of bacterial growth incubated for 24 hrs by CLSI protocol based microdilution method. The experiment is classed as functional.
Experiment [12] concerns Klebsiella pneumoniae. Nature of the experiment: Antibacterial activity against Klebsiella pneumoniae ATCC BAA-1705 assessed as inhibition of bacterial growth incubated for 24 hrs by CLSI protocol based microdilution method. The experiment is classed as functional.
Experiment [13] concerns Escherichia coli. In words: Antibacterial activity against Escherichia coli ATCC CRM-11229 assessed as inhibition of bacterial growth incubated for 24 hrs by CLSI protocol based microdilution method. It is filed as functional.

Calls of active or inactive are those of the source. The calls are words filed in the database; no cut-off is given here. Bridge positions count the residues as written; N and C are the ends. Square brackets hold non-standard residues; d marks the D form. Peptide text beside a SMILES is read from it. * marks the point of attachment. ξ: configuration not given here. Heptanoyl(6-Me) = CC(C)CCCCC(=O)*; dDab = NCC[C@@H](N)C(=O)O; Orn = NCCC[C@H](N)C(=O)O; Dab = NCC[C@H](N)C(=O)O; ξP = O=C(O)C1CCCN1

With `C=CN1CCCC1=O.II`, the outcome in experiment [1] was inactive.

Regarding `CC(C)C[C@@H]1NC(=O)[C@H](CCCN)NC(=O)[C@H](C(C)C)NC(=O)[C@@H]2CCCN2C(=O)[C@@H](Cc2ccccc2)NC(=O)[C@H](CC(C)C)NC(=O)[C@H](CCCN)NC(=O)[C@H](C(C)C)NC(=O)C2CCCN2C(=O)[C@@H](Cc2ccccc2)NC1=O` (stereo partly drawn) (cyclo(L[dF]PV[Orn]L[dF][ξP]V[Orn])), in experiment [2], the result was Active.

Consider `CC(C)CCCCC(=O)N[C@@H](CCN)C(=O)N[C@H](C(=O)N[C@@H](CCN)C(=O)N[C@H]1CCNC(=O)[C@H]([C@@H](C)O)NC(=O)[C@H](CCN)NC(=O)[C@H](CCN)NC(=O)[C@H](CC(C)C)NC(=O)[C@@H](Cc2ccccc2)NC(=O)[C@@H](CCN)NC1=O)[C@@H](C)O` ({Heptanoyl(6-Me)}-[Dab]T[Dab][Dab][dDab][dF]L[Dab][Dab]T; lactam 4-C), for which the outcome in [3] was Active.

On to COLISTIN, for which the fold change (FC) in [4] was found to be 2; in [5], 4.

As usually defined, the MIC is the lowest concentration found to suppress growth. With H-LPIIKWVKKFFWRWR-OH, the outcome in experiment [6], in experiment [7], in [8] and in experiment [9] was Active. In addition, the MIC worked out at 10 µM in [10], 15 µM in experiment [11], 16 µM in [12] and 8 µM in [13].

These data come from ChEMBL document CHEMBL5360649, “Potential Broad-Spectrum Antimicrobial, Wound Healing, and Disinfectant Cationic Peptide Crafted from Snake Venom” (J Med Chem, 2023).
